Assay results taken from patent publication EP0259014A2, “5-Deoxy-5-fluorokanamycin B derivatives and processes for the production thereof” (ZAIDAN HOJIN BISEIBUTSU KAGAKU KENKYU KAI, priority 1986, dated 1988).
Converted amounts (≈) assume the structure as drawn. Where two headings read alike, the source gives them in different places.

Experiments:
[1] = system: Staphylococcus aureus 209P; test: MIC, serial dilution on Mueller Hinton agar; assay type: cell-based; settings: Staphylococcus aureus 209P; Mueller Hinton agar, 37°C, 18 hours; read-out: MIC.
Providencia sp. Pv 16 = test: MIC, serial dilution on Mueller Hinton agar; assay type: cell-based
Bacillus subtilis PCI219 = test: MIC, serial dilution on Mueller Hinton agar; assay type: cell-based; settings: Bacillus subtilis PCI219; Mueller Hinton agar, 37°C, 18 hours; read-out: MIC.
Escherichia coli JR225 = test: microbe, parasite or virus in culture; assay type: cell-based; settings: Escherichia coli, JR225, 18 h
[2] = system: Pseudomonas aeruginosa GN 315; test: MIC, serial dilution on Mueller Hinton agar; assay type: cell-based
[3] = system: Escherichia coli JR66/W677; test: microbe, parasite or virus in culture; assay type: cell-based; settings: JR66/W677, 18 h
Escherichia coli K-12 = test: MIC, serial dilution on Mueller Hinton agar; assay type: cell-based; settings: K12; Escherichia coli K-12; Mueller Hinton agar, 37°C, 18 hours; read-out: MIC.
[4] = system: Klebsiella pneumoniae 22#3038; test: MIC, serial dilution on Mueller Hinton agar; assay type: cell-based; settings: Klebsiella pneumoniae 22#3038, resistance mechanism APH(3')-II, ANT(2"), 37°C, 18 hours
Excerpt: The antibacterial spectra so determined of the new compounds No. 1 to No. 13 (each in the form of the free base) of this invention are as shown in Table 1 below.

Escherichia coli K-12 R5 = test: MIC, serial dilution on Mueller Hinton agar; assay type: cell-based; settings: K12R5, 18 h
[5] = system: Escherichia coli K-12 LA 290 R55; test: MIC, serial dilution on Mueller Hinton agar; assay type: cell-based; settings: Escherichia coli, K12LA290R55, 18 h
Mycobacterium 607 = test: MIC, serial dilution on Mueller Hinton agar; assay type: cell-based; settings: Mycobacterium 607; Mueller Hinton agar, 37°C, incubated for 40 hours; read-out: MIC.
[6] = system: Pseudomonas aeruginosa A3; test: MIC, serial dilution on Mueller Hinton agar; assay type: cell-based; settings: Pseudomonas aeruginosa A3; Mueller Hinton agar, 37°C, 18 hours; read-out: MIC.
[7] = system: Corynebacterium bovis 1810; test: MIC, serial dilution on Mueller Hinton agar; assay type: cell-based; settings: Corynebacterium bovis 1810; Mueller Hinton agar, 37°C, 18 hours; read-out: MIC.
Proteus rettgeri GN 311 = test: MIC, serial dilution on Mueller Hinton agar; assay type: cell-based; settings: Providencia rettgeri, GN311; Proteus rettgeri GN 311; Mueller Hinton agar, 37°C, 18 hours; read-out: MIC.
[8] = system: Staphylococcus aureus Ap01; test: MIC, serial dilution on Mueller Hinton agar; assay type: cell-based
[9] = system: Escherichia coli K-12 ML 1629; test: MIC, serial dilution on Mueller Hinton agar; assay type: cell-based; settings: K12ML1629, Escherichia coli K-12 ML 1629, resistance mechanism APH(3')-I, 37°C, 18 hours
Serratia marcescens = test: MIC, serial dilution on Mueller Hinton agar; assay type: cell-based; settings: 18 h
in vivo = settings: mouse, iv
[10] = SP.PV16, Providencia sp. Pv 16, resistance mechanism AAC(2'), Mueller Hinton agar, 37°C, 18 hours, read-out: MIC.
[11] = Pseudomonas aeruginosa, GN315, 18 h
[12] = Staphylococcus aureus Ap01, resistance mechanism ANT(4'), Mueller Hinton agar, 37°C, 18 hours, read-out: MIC.
[13] = GN315, Pseudomonas aeruginosa GN 315, resistance mechanism AAC(6'), Mueller Hinton agar, 37°C, 18 hours, read-out: MIC.

SMILES	MIC [1] [µg/mL]	MIC (Providencia sp. Pv 16; [10]) [µg/mL]	MIC (Bacillus subtilis PCI219) [µg/mL]	MIC (Escherichia coli JR225) [µg/mL]	MIC [2, 11] [µg/mL]	MIC [3] [µg/mL]	MIC (Escherichia coli K-12) [µg/mL]	MIC [4] [µg/mL]	MIC (Escherichia coli K-12 R5) [µg/mL]	MIC [5] [µg/mL]	MIC (Mycobacterium 607) [µg/mL]	MIC [6] [µg/mL]	MIC [7] [µg/mL]	MIC (Proteus rettgeri GN 311) [µg/mL]	MIC [9] [µg/mL]	MIC (Serratia marcescens) [µg/mL]	MIC [8, 12] [µg/mL]	MIC [2, 13] [µg/mL]	further results
NCC(O)C(=O)N[C@@H]1C[C@H](N)[C@@H](O[C@H]2O[C@H](CN)[C@@H](O)C[C@H]2N)[C@H](F)[C@H]1O[C@H]1O[C@H](CO)[C@@H](O)[C@H](N)[C@H]1O (stereo partly drawn) [Compound No. 7, 1-N-(3-Amino-2-(RS)-hydroxypropionyl)-5,3'-dideoxy-5-fluorokanamycin B]	0.39 (≈ 0.701 µM)	0.78 (≈ 1.4 µM)	0.2 (≈ 0.359 µM)	0.78 (≈ 1.4 µM)	6.25 (≈ 11.2 µM)	1.56 (≈ 2.8 µM)	0.2 (≈ 0.359 µM)	3.12 (≈ 5.61 µM)	6.25 (≈ 11.2 µM)	0.78 (≈ 1.4 µM)	0.78 (≈ 1.4 µM)	0.39 (≈ 0.701 µM)	< 0.2	0.78 (≈ 1.4 µM)	0.78 (≈ 1.4 µM)	3.12 (≈ 5.61 µM)	–	–	MIC ([8]; Staphylococcus aureus, AP01, 18 h): 1.56 µg/mL (≈ 2.8 µM)
NC[C@H](O)C(=O)N[C@@H]1C[C@H](N)[C@@H](O[C@H]2O[C@H](CN)[C@@H](O)C[C@H]2N)[C@H](F)[C@H]1O[C@H]1O[C@H](CO)[C@@H](O)[C@H](N)[C@H]1O [Compound No. 8, 1-N-(3-Amino-2-(S)-hydroxypropionyl)-5,3'-dideoxy-5-fluorokanamycin B]	0.39 (≈ 0.701 µM)	0.78 (≈ 1.4 µM)	0.2 (≈ 0.359 µM)	0.78 (≈ 1.4 µM)	6.25 (≈ 11.2 µM)	0.78 (≈ 1.4 µM)	0.2 (≈ 0.359 µM)	1.56 (≈ 2.8 µM)	6.25 (≈ 11.2 µM)	1.56 (≈ 2.8 µM)	0.78 (≈ 1.4 µM)	0.39 (≈ 0.701 µM)	< 0.2	0.39 (≈ 0.701 µM)	0.78 (≈ 1.4 µM)	3.12 (≈ 5.61 µM)	0.78 (≈ 1.4 µM)	–	–
NCC[C@H](O)C(=O)N[C@@H]1C[C@H](N)[C@@H](O[C@H]2O[C@H](CN)C[C@H](O)[C@H]2N)[C@H](F)[C@H]1O[C@H]1O[C@H](CO)[C@@H](O)[C@H](N)[C@H]1O [Compound No. 10, 1-N-(4-Amino-2-(S)-hydroxybutyryl)-5,4'-dideoxy-5-fluorokanamycin B]	0.39 (≈ 0.683 µM)	0.78 (≈ 1.37 µM)	0.39 (≈ 0.683 µM)	0.78 (≈ 1.37 µM)	–	1.56 (≈ 2.73 µM)	0.2 (≈ 0.35 µM)	3.12 (≈ 5.47 µM)	12.5 (≈ 21.9 µM)	1.56 (≈ 2.73 µM)	6.25 (≈ 11 µM)	0.39 (≈ 0.683 µM)	< 0.2	0.2 (≈ 0.35 µM)	0.78 (≈ 1.37 µM)	3.12 (≈ 5.47 µM)	0.39 (≈ 0.683 µM)	6.25 (≈ 11 µM)	–
NC[C@@H]1CC[C@@H](N)[C@@H](O[C@H]2[C@H](F)[C@@H](O[C@H]3O[C@H](CO)[C@@H](O)[C@H](N)[C@H]3O)[C@H](NC(=O)[C@@H](O)CN)C[C@@H]2N)O1 [Compound No. 12, 1-N-(3-Amino-2-(S)-hydroxypropionyl)-5,3',4'-trideoxy-5-fluorokanamycin B]	0.39 (≈ 0.721 µM)	–	0.39 (≈ 0.721 µM)	0.39 (≈ 0.721 µM)	–	1.56 (≈ 2.89 µM)	0.2 (≈ 0.37 µM)	1.56 (≈ 2.89 µM)	50 (≈ 92.5 µM)	1.56 (≈ 2.89 µM)	0.78 (≈ 1.44 µM)	0.39 (≈ 0.721 µM)	0.2 (≈ 0.37 µM)	< 0.2	0.78 (≈ 1.44 µM)	1.56 (≈ 2.89 µM)	0.78 (≈ 1.44 µM)	6.25 (≈ 11.6 µM)	MIC (Providencia sp. Pv 16; Providencia, SP.PV16, 18 h): 1.56 µg/mL (≈ 2.89 µM)
NC[C@@H]1CC[C@@H](N)[C@@H](O[C@H]2[C@H](O)[C@@H](O[C@H]3O[C@H](CO)[C@@H](O)[C@H](N)[C@H]3O)[C@H](N)C[C@@H]2N)O1 [DKB, 3',4'-dideoxykanamycin B, reference compound]	0.39 (≈ 0.864 µM)	–	0.39 (≈ 0.864 µM)	100 (≈ 221 µM)	–	–	0.2 (≈ 0.443 µM)	50 (≈ 111 µM)	50 (≈ 111 µM)	50 (≈ 111 µM)	1.56 (≈ 3.45 µM)	0.2 (≈ 0.443 µM)	–	0.2 (≈ 0.443 µM)	–	–	–	–	–
NCC[C@H](O)C(=O)N[C@@H]1C[C@H](N)[C@@H](O[C@H]2O[C@H](CN)CC[C@H]2N)[C@H](O)[C@H]1O[C@H]1O[C@H](CO)[C@@H](O)[C@H](N)[C@H]1O [habekacin, 1-N-(4-amino-2-(S)-hydroxybutyryl)-3',4'-dideoxykanamycin B, reference compound]	–	–	–	–	–	–	–	–	–	–	–	–	–	–	–	–	–	–	LD50 (in vivo): 90 mg/kg
